Here are results for 23 compounds from patent US8119630B2 (Arrow Therapeutics Limited, priority 2002, dated 2012).

One data set deals with Hep-2 cells. Briefly: Toxicity studies (XTT), Hep-2 cells. The class given is cell-based. Set-up: TC50 (6d): unit not given beside the values. The note with it: for TC50 (6d): Table 2, Examples 75 to 82 and 125 to 184, 6d, in µM; for TC50 (2d): Table 2, Examples 75 to 82 and 125 to 184, 2d. The protocol:
(§1) The inner 60 wells of 96 well tissue culture plates were seeded with Hep-2 cells at 4×10^4 cells/well for compound activity and toxicity studies in 100 μl of medium and incubated at 37° C. overnight or until nearing confluency.
Cells were infected with 25 μl RSV previously titrated to give 80% cell kill. To each well 25 μM of test compound were added. The final DMSO concentration was 0.5%. […] Some 0.25 μl/ml PMS were added to stock […] solution, final conc. 25 μM PMS. Then 25 μl warmed XTT/PMS solution were added to each well and incubated for 1 hour at 37° C.
On the technique in general: Tetrazolium dyes change colour on reduction, which living cells bring about.

A further data set has as its system RSV. Briefly: XTT assay, RSV-infected Hep-2 cells. The class given is cell-based, Respiratory Syncytial Virus (RSV). The note with it: Table 2, Examples 75 to 82 and 125 to 184, Hep-2 cells infected with RSV, 6 days at 37° C. As to the method: Examples 75 to 82 and 125 to 184 were tested according to the protocol described below.
as §1
Cells were infected with 25 μl RSV previously titrated to give 80% cell kill. To each well 25 μM of test compound were added. The final DMSO concentration was 0.5%. Some 200 μl of sterile distilled water were added to the outer wells of the plate and incubated at 37° C. for 6 days. Some 0.25 μl/ml PMS were added to stock […] solution, final conc. 25 μM PMS. Then 25 μl warmed XTT/PMS solution were added to each well and incubated for 1 hour at 37° C.
Maximum OD450nm reading (uninfected, untreated control cells) corresponded to 100% inhibition. Minimum OD450nm readings (infected control cells) corresponded to 0% inhibition. Log 10 concentration was plotted against OD450nm and IC50 values were calculated from either reading 50% value from graph or using regression analysis.

[1] abbreviates: human respiratory syncytial virus, 144 h.

As a reminder, the IC50 is the concentration at which inhibition is half-maximal. `O=C(NC1N=C(c2ccccc2)c2ccccc2NC1=O)c1c(F)cccc1F` (stereo not shown) [Example 136, 2,6-Difluoro-N (2-oxo-5-phenyl-2,3-dihydro-1H-benzo[e][1,4]diazepin-3-yl)-benzamide]: the “TC50 (6d)” value with Hep-2 cells was >50. It took 8.7 µM to reach half-maximal inhibition in the data set on RSV (IC50).

Turning to `COc1cc2ccccc2cc1C(=O)NC1N=C(c2ccccc2)c2ccccc2NC1=O` (stereo not shown) [Example 82a, 3-Methoxy-naphthalene-2-carboxylic acid (2-oxo-5-phenyl-2,3-dihydro-1H-benzo[e][1,4]diazepin-3-yl)-amide], in the data set on Hep-2 cells, the “TC50 (6d)” value is reported as >50. The compound further returned an IC50 in the data set with RSV (setting [1]) of 6.7 µM.

For the compound `O=C(NC1N=C(c2ccccc2)c2ccc(Cl)cc2NC1=O)C1CCCCC1` (stereo not shown) [Example 168, Cyclohexanecarboxylic acid (8-chloro-2-oxo-5-phenyl-2,3-dihydro-1H-benzo[e][1,4]diazepin-3-yl)-amide], in the data set on Hep-2 cells, the TC50 (2d) was > 100 µM and the “TC50 (6d)” value is >100. In the data set on RSV (setting [1]), this compound came in with an IC50 of 5 µM.

As for `O=C(NC1N=C(c2ccccc2)c2ccccc2NC1=O)c1cccc2cc[nH]c12` (stereo not shown) [Example 81a, 1H-Indole-7-carboxylic acid (2-oxo-5-phenyl-2,3-dihydro-1H-benzo[e][1,4]diazepin-3-yl)-amide], in the data set on Hep-2 cells, the “TC50 (6d)” value is 63. In the data set on RSV (setting [1]), this compound registered an IC50 of 8.4 µM.

Consider `O=C(NC1N=C(c2ccccc2)c2ccccc2NC1=O)c1ccccc1O` (stereo not shown) [Example 80a, 2-Hydroxy-N-(2-oxo-5-phenyl-2,3-dihydro-1H-benzo[e][1,4]diazepin-3-yl)-benzamide], for which the “TC50 (6d)” value in the data set on Hep-2 cells is given as 33. Besides, the IC50 in the data set on RSV (setting [1]) worked out at 8.7 µM.

Regarding `COc1ccc(S(N)(=O)=O)cc1C(=O)NC1N=C(c2ccccc2)c2ccccc2NC1=O` (stereo not shown) [Example 143, 2-Methoxy-N-(2-oxo-5-phenyl-2,3-dihydro-1H-benzo[e][1,4]diazepin-3-yl)-5-sylfamoyl-benzamide], in the data set with Hep-2 cells, the TC50 (2d) was > 50 µM. In the data set with RSV, this compound came in with an IC50 of 3.8 µM.

As to “Cyclohexanecarboxylic acid [5-(3-chloro-phenyl)-2-oxo-5-phenyl-2,3-dihydro-1H-benzo[e][1,4]diazepin-3-yl]-amide [Example 158]”, in the data set with Hep-2 cells, the TC50 (2d) amounted to 100 µM and the “TC50 (6d)” value is on record as >100. In addition, the IC50 in the data set with RSV was determined as 2 µM.

As for `CC(C)(C)OC(=O)NC1N=C(c2ccccc2)c2ccccc2NC1=O` (stereo not shown) [Example 178, (2-Oxo-5-phenyl-2,3-dihydro-1H-benzo[e][1,4]diazepin-3-yl)carbamic acid tert-butyl ester], the “TC50 (6d)” value with Hep-2 cells is reported as >50. Besides, it took 4.3 µM to reach half-maximal inhibition in the data set with RSV (setting [1]) (IC50).

In the case of `CC(C)(C)NC(=O)NC1N=C(c2ccccc2)c2ccccc2NC1=O` (stereo not shown) [Example 148, 1-tert-Butyl-3-(2-oxo-5-phenyl-2,3-dihydro-1H-benzo[e][1,4]diazepin-3-yl)-urea], in the data set with Hep-2 cells, the TC50 (2d) was > 100 µM and the “TC50 (6d)” value is >100. Further, in the data set with RSV (setting [1]), the IC50 was 5 µM.

For `COc1cc(C(F)(F)F)ccc1C(=O)N[C@H]1N=C(c2ccccc2)c2ccccc2NC1=O` [Example 78, (S)-2-Methoxy-N-(2-oxo-5-phenyl-2,3-dihydro-1H-benzo[e][1,4]diazepin-3-yl)-4-trifluoromethyl-benzamide], the “TC50 (6d)” value with Hep-2 cells came out at 32.5. For the same compound, the half-inhibitory concentration (IC50) with RSV (setting [1]) was found to be 2.7 µM.

As for `COc1cc(SC)ccc1C(=O)NC1N=C(c2ccccc2)c2ccccc2NC1=O` (stereo not shown) [Example 132, 2-Methoxy-4-methylsulfanyl-N-(2-oxo-5-phenyl-2,3-dihydro-1H-1-benzo[e][1,4]diazepin-3-yl)-benzamide], the “TC50 (6d)” value in the data set on Hep-2 cells is >50. Further, the IC50 in the data set on RSV was determined as 6.3 µM.

As to “Furan-2-carboxylic acid [5-(3-chloro-phenyl)-2-oxo-5-phenyl-2,3-dihydro-1H-benzo[e][1,4]diazepin-3-yl]-amide [Example 156]”, in the data set with Hep-2 cells, the TC50 (2d) worked out at 100 µM and the “TC50 (6d)” value stood at 100. In the data set with RSV, this compound showed an IC50 of 1.5 µM.

Turning to `O=C1Nc2ccccc2C(c2ccccc2)=NC1NC(=O)n1c(=O)[nH]c2ccccc21` (stereo not shown) [Example 177, 2-Oxo-2,3-dihydro-benzoimidazole-1-carboxylic acid (2-oxo-5-phenyl-2,3-dihydro-1H-benzo[e][1,4]diazepin-3-yl)-amide], the “TC50 (6d)” value with Hep-2 cells was >50. The compound also displayed an IC50 in the data set with RSV (setting [1]) of 4.3 µM.

As to `COC(=O)NC1N=C(c2ccccc2)c2ccccc2NC1=O` (stereo not shown) [Example 181, (2-Oxo-5-phenyl-2,3-dihydro-1H-benzo[e][1,4]diazepin-3-yl)-carbamic acid methyl ester], in the data set with Hep-2 cells, the “TC50 (6d)” value is listed as >50. Besides, it took 9.6 µM to reach half-maximal inhibition in the data set on RSV (setting [1]) (IC50).

Take `CCOC(=O)NC1N=C(c2ccccc2)c2ccccc2NC1=O` (stereo not shown) [Example 182, (2-Oxo-5-phenyl-2,3-dihydro-1H-benzo[e][1,4]diazepin-3-yl)-carbamic acid ethyl ester]: the “TC50 (6d)” value with Hep-2 cells is recorded as >50. In the data set on RSV (setting [1]), this compound registered an IC50 of 10 µM.

In the case of `COc1cc([N+](=O)[O-])ccc1C(=O)N(C)C1N=C(c2ccccc2)c2ccccc2NC1=O` (stereo not shown) [Example 147, 2-Methoxy-N-methyl-4-nitro-N-(2-oxo-5-phenyl-2,3-dihydro-1H-benzo[e][1,4]diazepin-3-yl)-benzamide], the TC50 (2d) in the data set on Hep-2 cells was > 50 µM. In the data set with RSV (setting [1]), half-maximal inhibition (IC50) was put at 15.9 µM.

With `O=C(N[C@H]1N=C(c2ccccc2)c2ccccc2NC1=O)c1cc(Br)c(Br)o1` [Example 179, (S)-4,5-Dibromo-furan-2-carboxylic acid (2-oxo-5-phenyl-2,3-dihydro-1H-benzo[e][1,4]diazepin-3-yl)-amide], in the data set with Hep-2 cells, the “TC50 (6d)” value is given as >50. The compound further came in with an IC50 in the data set on RSV (setting [1]) of 3.9 µM.

Take “Piperidine-4-carboxylic acid [5-(3-methoxy-phenyl)-2-oxo-5-phenyl-2,3-dihydro-1H-benzo[e][1,4]diazepin-3-yl]-amide [Example 167]”: in the data set with Hep-2 cells, the TC50 (2d) was > 100 µM and the “TC50 (6d)” value is on record as >100. In the data set on RSV, this compound displayed an IC50 of 9 µM.

Turning to `COc1cc(S(C)(=O)=O)ccc1C(=O)N[C@H]1N=C(c2ccccc2)c2ccccc2NC1=O` [Example 75b, (S)-4-Methanesulfonyl-2-methoxy-N-(2-oxo-5-phenyl-2,3-dihydro-1H-benzo[e][1,4]diazepin-3-yl)-benzamide], the “TC50 (6d)” value in the data set with Hep-2 cells is >50. The IC50 in the data set with RSV (setting [1]) came to 0.6 µM.

Consider `CCOc1ccc2ccccc2c1C(=O)NC1N=C(c2ccccc2)c2ccccc2NC1=O` (stereo not shown) [Example 175, 2-Ethoxy-naphthalene-1-carboxylic acid (2-oxo-5-phenyl-2,3-dihydro-1H-benzo[e][1,4]diazepin-3-yl)-amide], for which the “TC50 (6d)” value with Hep-2 cells is given as >50. In the data set on RSV (setting [1]), this compound returned an IC50 of 8.2 µM.

Turning to “Thiophene-2-carboxylic acid [5-(3-chloro-phenyl)-2-oxo-5-phenyl-2,3-dihydro-1H-benzo[e][1,4]diazepin-3-yl]-amide [Example 157]”, in the data set with Hep-2 cells, the TC50 (2d) is > 100 µM and the “TC50 (6d)” value is 100. This compound also showed an IC50 with RSV of 5 µM.

For the compound `CN(C)c1ccc(C(=O)NC2N=C(c3ccccc3)c3ccccc3NC2=O)cn1` (stereo not shown) [Example 174, 6-Dimethylamino-N-(2-oxo-5-phenyl-2,3-dihydro-1H-benzo[e][1,4]diazepin-3-yl)-nicotinamide], the “TC50 (6d)” value with Hep-2 cells was determined as 60. In the data set on RSV (setting [1]), the IC50 was determined as 6.9 µM.

As to `O=C(NC1N=C(c2ccccc2)c2ccccc2NC1=O)c1ccccc1F` (stereo not shown) [Example 135, 2-Fluoro-N-(2-oxo-5-phenyl-2,3-dihydro-1H-benzo[e][1,4]diazepin-3-yl)-benzamide], in the data set with Hep-2 cells, the “TC50 (6d)” value is listed as >50. Besides, in the data set with RSV (setting [1]), the IC50 was determined as 9.5 µM.
